system: deacetylase OngB; test: Substrate specificity analysis of OngB (acetate production); type: biochemical, Pseudoalteromonas prydzensis ACAM 620; conditions: 5 μM OngB, 25 mM substrate, 10 mM Bis-Tris-HCl (pH 7.5), 25° C., 30 min; FIG. 4A
Method: Substrate specificity assays were performed with GlcNAc1A, GlcNAc, GlcNAc-6-P, N-acetyl-D-glutamate and N-acetyl-D-serine. Standard reaction system contained 5 μM OngB, 25 mM substrate and 10 mM Bis-Tris-HCl (pH 7.5). Reactions were conducted at 25° C. for 30 min. The production of acetate in the reaction mixture was determined with an Acetic Acid (ACS Analyser Format) Assay Kit. One unit of enzyme (U) is defined as the amount of enzyme required to release 1 μmol of acetate per minute.

SMILES	OngB activity towards substrate (production of acetate)
CC(=O)N[C@H](CCC(=O)O)C(=O)O [N-acetyl-D-glutamate]	little or no activity
CC(=O)N[C@@H](C(=O)O)[C@@H](O)[C@H](O)[C@H](O)CO [GlcNAc1A, 2-(acetylamino)-2-deoxy-D-gluconic acid]	high substrate specificity
CC(=O)N[C@H](CO)C(=O)O [N-acetyl-D-serine]	little or no activity

Results, then the compound that gave them:

OngB activity towards substrate (production of acetate)	SMILES
little or no activity	CC(=O)N[C@@H]1[C@@H](O)[C@H](O)[C@@H](COP(=O)(O)O)O[C@@H]1O [GlcNAc-6-P]
little or no activity	CC(=O)N[C@H]1C(O)O[C@H](CO)[C@@H](O)[C@@H]1O (stereo partly drawn) [GlcNAc, N-acetyl-D-glucosamine]

system: deaminase OngC; test: Substrate specificity analysis of OngC (ammonia production); type: biochemical, Pseudoalteromonas prydzensis ACAM 620; conditions: 0.5 μM OngC, 10 mM substrate, 10 mM Bis-Tris-HCl (pH 7.5), 25° C., 30 min; FIG. 4B
Method: Substrate specificity assays were performed with GlcN1A, D-glucosamine, D-galactosamine and D-mannosamine. GlcN1A was prepared by incubating 10 μM OngB with 10 mM GlcNAc1A in 10 mM Bis-Tris-HCl (pH 7.5) at 25° C. for 4 h. Standard reaction system contained 0.5 μM OngC, 10 mM substrate and 10 mM Bis-Tris-HCl (pH 7.5). Reactions were conducted at 25° C. for 30 min. The production of ammonia in the reaction mixture was determined with an AMMONIA (Rapid) ASSAY PROCEDURE. One unit of enzyme (U) is defined as the amount of enzyme required to release 1 μmol of ammonia per minute.

OngC activity towards substrate (production of ammonia)	SMILES
little or no activity	N[C@@H]1C(O)O[C@H](CO)[C@@H](O)[C@@H]1O (stereo partly drawn) [D-mannosamine]
high substrate specificity	N[C@@H](C(=O)O)[C@@H](O)[C@H](O)[C@H](O)CO [GlcN1A, 2-(amino)-2-deoxy-D-gluconic acid]
little or no activity	N[C@H]1C(O)O[C@H](CO)[C@@H](O)[C@@H]1O (stereo partly drawn) [D-glucosamine]
little or no activity	N[C@H]1C(O)O[C@H](CO)[C@H](O)[C@@H]1O (stereo partly drawn) [D-galactosamine]

Reference: patent publication US11946092B2, “Method for producing 2-keto-3-deoxygluconate from 2-(acetylamino)-2-deoxy-d-gluconic acid by two enzymes” (SHANDONG UNIVERSITY, priority 2022, dated 2024)
